Publication PMC6162302, “A modified serine cycle in Escherichia coli coverts methanol and CO2 to two-carbon compounds” (Nature Communications, 2018)

Molecular target: T1, Medh(CT4–1), variant of Mdh2 (Cupriavidus necator, UniProt F8GNE5)
T1 construct: engineered variant CT4-1 of Mdh2, N-terminal His-tag, expressed in E. coli BL21(DE3), His-Spin column purified
T1 sequence (F8GNE5 1-390): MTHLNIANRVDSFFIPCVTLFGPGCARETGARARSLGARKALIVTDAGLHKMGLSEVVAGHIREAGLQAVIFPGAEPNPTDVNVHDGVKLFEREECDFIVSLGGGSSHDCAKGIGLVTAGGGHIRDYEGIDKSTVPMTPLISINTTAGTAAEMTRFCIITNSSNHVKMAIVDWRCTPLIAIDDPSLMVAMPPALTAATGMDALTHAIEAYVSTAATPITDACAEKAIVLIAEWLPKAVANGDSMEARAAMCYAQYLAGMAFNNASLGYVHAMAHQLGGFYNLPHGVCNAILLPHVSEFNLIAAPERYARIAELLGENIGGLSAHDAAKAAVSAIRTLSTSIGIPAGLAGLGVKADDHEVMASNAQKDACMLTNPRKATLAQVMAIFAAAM
Experiment: NADH formation at […] nm
Assay type: biochemical
Conditions: 500 mM methanol, 5 mM MgCl2, 100 mM NaHCO3 pH 9.5, 37 °C

`NC(=O)c1ccc[n+]([C@@H]2O[C@H](COP(=O)(O)OP(=O)(O)OC[C@H]3O[C@@H](n4cnc5c(N)ncnc54)[C@H](O)[C@@H]3O)[C@@H](O)[C@H]2O)c1` [NAD] was tested, and the “NADH formation at 340 nm” value was “oxidation of methanol to formaldehyde with the formation of NADH”.
